The record followed here is PubChem BioAssay AID2060487 (Molecular Pharmacology Branch, DTP, NCI, 2025).

pIC50: −log10 of the molar value. Several values for one entry are separate records, joined by “and”; a condition that tells them apart may be missing. Equal entries are not always repeated.

In the test the test system is 997537-175-T-J1-PDC complex spheroid viability. The test is described as follows: Anticancer human tumor 997537-175-T-J1-PDC patient-derived colon adenocarcinoma cell line growth inhibition [GQUAD]. The conditions noted are these: for viability, T/C: stronger effect = lower value. From the text:
DNA G-quadruplex Stabilizer Agents in Combinations in Complex Spheroids
A high-throughput screen of multi-cell type tumor spheroids was designed to identify active combinations of DNA G-quadruplex stabilizer agents and targeted small molecules. Complex spheroids include a stromal component modeled by human endothelial cells (HUVEC) and fibroblasts modeled by human mesenchymal stem cells (MSCs). The concentration ranges selected for each drug and investigational agent were based upon clinically achievable concentrations if the clinical Cmax of the agent was known.
Compounds. The drugs and investigational agents: pidnarulex (CX-5461; NSC782164), APTO-253 (NSC789042), BRACO-19 (NSC847499), peposertib (NSC802822), ceralasertib (NSC780249), elimusertib (NSC800525), camonsertib (NSC841442), AZD-1390 (NSC803789), olaparib (NSC753686), talazoparib (NSC767125), ART-558 (NSC835418), sotorasib (NSC818433), MRTX-1133 (NSC836407), SN-38 (NSC673596), topotecan (NSC609699), etoposide (NSC141540), doxorubicin (NSC123127), gemcitabine (NSC613327), 5-fluorouracil (NSC19893), paclitaxel (NSC125973), vemurafenib (NSC761431), panobinostat (NSC761190), R-306465 (JNJ-16241199; NSC773264), adavosertib (NSC754352), TP-3654 (NSC805149), carboplatin (NSC241240), KSQ-4279 (NSC840948), and staurosporine (NSC755774) were obtained from the National Cancer Institute (NCI) Developmental Therapeutics Program Chemical Repository (34). The FDA-approved anticancer drug set is available from the NCI Developmental Therapeutics Program. […] The stock solutions were prepared in dimethyl sulfoxide (DMSO, Sigma-Aldrich, St. Louis, MO, cat. D2650) at 800-fold the tested concentration and stored at -70 degrees C prior to their use. All drugs and investigational agents were tested over a range starting from a high concentration at or near the clinical Cmax and decreasing in half-log increments. If the clinical Cmax for an agent had not been determined, the highest concentration tested was 10 microM.
2.3 Cell Culture. All cells were maintained in an incubator at 37 degrees C and 5% CO2 with 95% humidity. The PDC lines were cultured according to standard operating procedures established by the NCI PDMR. All PDCs were thawed and cultured in Matrigel-coated flasks prepared with a working solution of 1X Ham's F-12 nutrient mix, without supplementation (Invitrogen, cat. 11765054), 100 U/mL penicillin-streptomycin (Invitrogen, cat. 15140122), and 2.5% Matrigel (Corning Inc., cat. 354248) for the first three passages. The 857933-349-R-J2-PDC line was cultured in 6C/Colon 1B media, which includes advanced DMEM/F-12 (Thermo Fisher Scientific, cat. 12634028), 10 mM HEPES (Thermo Fisher Scientific, cat. 15630080), 1X GlutaMAX supplement (Thermo Fisher Scientific, cat. 35050061), 0.1 mg/mL primocin (InvivoGen, cat. ant-pm-2), 10% defined fetal bovine serum, heat inactivated (HyClone Laboratories Inc., cat. SH30070.03HI), 50% L-WRN conditioned media (ATCC, cat. CRL-3276), 1.25 mM N-Acetyl-L-cysteine (Sigma-Aldrich, cat. A9165), 10 mM nicotinamide (Sigma-Aldrich, cat. N0636), 1X B-27 supplement (Thermo Fisher Scientific, cat. 17504044), 1X N-2 supplement (Thermo Fisher Scientific, cat. 17502048), 10 microM Y-27632 dihydrochloride (Tocris Bioscience, cat. 1254), and 50 ng/mL human EGF recombinant protein (Thermo Fisher Scientific, cat. PHG0311). The 485176-168-R4-J1-PDC line was cultured in Panc media, which includes all 6C/Colon 1B media components plus 100 ng/mL human FGF-10 (Thermo Fisher Scientific, cat. 100-26), 500 nM SB-431542 (Selleckchem, cat. S1067), and gastrin (Tocris, cat. 3006).
[…]

[1] abbreviates: curve of first compound, second compound 0.0316 µM.
The mark [2] stands for this setting: curve of first compound, second compound 0.1 µM.
[3] abbreviates: curve of first compound, second compound 0.316 µM.
[4] abbreviates: curve of first compound, second compound 1 µM.
The mark [5] stands for this setting: curve of first compound, second compound 3.16 µM.
The mark [6] stands for this setting: curve of first compound, second compound 10 µM.
The mark [7] stands for this setting: second compound 0.0316 µM, first compound 0.0316 µM.
Setting [8] is: second compound 0.0316 µM, first compound 0.1 µM.
Where [9] appears, read: second compound 0.0316 µM, first compound 0.316 µM.
Setting [10] is: second compound 0.0316 µM, first compound 1 µM.
Setting [11] is: second compound 0.0316 µM, first compound 3.16 µM.
[12] abbreviates: second compound 0.0316 µM, first compound 10 µM.
Where [13] appears, read: second compound 0.1 µM, first compound 0.0316 µM.
[14] abbreviates: second compound 0.1 µM, first compound 0.1 µM.
[15] abbreviates: second compound 0.1 µM, first compound 0.316 µM.
Where [16] appears, read: second compound 0.1 µM, first compound 1 µM.
Where [17] appears, read: second compound 0.1 µM, first compound 3.16 µM.
Setting [18] is: second compound 0.1 µM, first compound 10 µM.
The mark [19] stands for this setting: second compound 0.316 µM, first compound 0.0316 µM.
[20] abbreviates: second compound 0.316 µM, first compound 0.1 µM.
The mark [21] stands for this setting: second compound 0.316 µM, first compound 0.316 µM.
The mark [22] stands for this setting: second compound 0.316 µM, first compound 1 µM.
The mark [23] stands for this setting: second compound 0.316 µM, first compound 3.16 µM.
Setting [24] is: second compound 0.316 µM, first compound 10 µM.
Where [25] appears, read: second compound 1 µM, first compound 0.0316 µM.
[26] abbreviates: second compound 1 µM, first compound 0.1 µM.
The mark [27] stands for this setting: second compound 1 µM, first compound 0.316 µM.
[28] abbreviates: second compound 1 µM, first compound 1 µM.
[29] abbreviates: second compound 1 µM, first compound 3.16 µM.
[30] abbreviates: second compound 1 µM, first compound 10 µM.
Setting [31] is: second compound 3.16 µM, first compound 0.0316 µM.
Where [32] appears, read: second compound 3.16 µM, first compound 0.1 µM.
[33] abbreviates: second compound 3.16 µM, first compound 0.316 µM.
The mark [34] stands for this setting: second compound 3.16 µM, first compound 1 µM.
Where [35] appears, read: second compound 3.16 µM, first compound 3.16 µM.
Setting [36] is: second compound 3.16 µM, first compound 10 µM.
[37] abbreviates: second compound 10 µM, first compound 0.0316 µM.
[38] abbreviates: second compound 10 µM, first compound 0.1 µM.
The mark [39] stands for this setting: second compound 10 µM, first compound 0.316 µM.
Setting [40] is: second compound 10 µM, first compound 1 µM.
Setting [41] is: second compound 10 µM, first compound 3.16 µM.
The mark [42] stands for this setting: second compound 10 µM, first compound 10 µM.
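Further: spheroids exposed to the agents for 7 days.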
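Wherever viability, T/C is given: 100% = DMSO vehicle control viability.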

In the case of `O=C(c1cc(Cc2n[nH]c(=O)c3ccccc23)ccc1F)N1CCN(C(=O)C2CC2)CC1` + CN(C)c1ccc(Nc2c3ccc(NC(=O)CCN4CCCC4)cc3nc3cc(NC(=O)CCN4CCCC4)ccc23)cc1, the negative logarithm of the IC50 (pIC50) is, setting by setting: under setting [1], less than 5.00; under setting [2], less than 5.00; under setting [3], less than 5.00; under setting [4], less than 5.00; under setting [5], less than 5.00; under setting [6], less than 5.00. For the same molecule, the viability, T/C under setting [7] was 106%; the viability, T/C under setting [8] is 89.7%; the viability, T/C under setting [9] was 91.4%; the viability, T/C under setting [10] was 79.1%; the viability, T/C under setting [11] was 98.9%; the viability, T/C under setting [12] was 90.6%. The viability, T/C was 92% under setting [13]; 99.2% under setting [14]; 97.2% under setting [15]; 74.5% under setting [16]; 91.4% under setting [17]; 88.9% under setting [18]. Further, the viability, T/C under setting [19] is 88.3%; the viability, T/C under setting [20] was 78.2%; the viability, T/C under setting [21] was 90.4%; the viability, T/C under setting [22] was 72%; the viability, T/C under setting [23] is 97.3%; the viability, T/C under setting [24] was 84.3%. For the same molecule, the viability, T/C is, setting by setting: under setting [25], 85.7%; under setting [26], 86%; under setting [27], 77.6%; under setting [28], 85.6%; under setting [29], 92.4%; under setting [30], 85.4%. The viability, T/C is 82.8% under setting [31]; 105% under setting [32]; 88.7% under setting [33]; 73.9% under setting [34]; 85.8% under setting [35]; 105% under setting [36]. In addition, the viability, T/C by setting is: under setting [37], 74.9%; under setting [38], 97.4%; under setting [39], 95.2%; under setting [40], 93.8%; under setting [41], 102%; under setting [42], 96%.
Consider `Cc1[nH]c2ccccc2c1CCNCc1ccc(/C=C/C(=O)NO)cc1`, for which the viability, T/C runs as follows: (compound 0.000999 µM) 93.4% and 96.3% and 94.4%; (compound 0.00316 µM) 101% and 94.2% and 106%; (compound 0.00999 µM) 110% and 59.3% and 109%; (compound 0.0316 µM) 105% and 87.4% and 93.1%; (compound 0.0999 µM) 100% and 86.6% and 92.4%; (compound 0.316 µM) 87.6% and 50% and 52%. In addition, under “curve of compound”, the pIC50 is < 6.50 and 6.50.
In the case of `O=C(NO)c1cnc(N2CCN(S(=O)(=O)c3ccc4ccccc4c3)CC2)nc1`, the viability, T/C is, setting by setting: (compound 0.0316 µM) 65.3% and 97.2% and 113%; (compound 0.1 µM) 24.7% and 95.1% and 86.5%; (compound 0.316 µM) 47.4% and 101% and 105%; (compound 1 µM) 41.2% and 82% and 69%; (compound 3.16 µM) 42.8% and 22.4% and 27.3%; (compound 10 µM) 23.3% and 0.34% and 0.28%.
For `CC1COCCN1c1cc(C2(O)CC3CCC(C2)O3)c2cnn(-c3ccn[nH]3)c2n1` (centres undefined) + Cc1[nH]c2ccc(F)cc2c1-c1nc2c3cccnc3c3ncccc3c2[nH]1, the negative logarithm of the IC50 (pIC50) reads like this: under setting [1], 6.52; under setting [2], 6.45; under setting [3], 6.52; under setting [4], 6.81; under setting [5], more than 7.50; under setting [6], 7.13. For the same molecule, the viability, T/C runs as follows: under setting [7], 74.3%; under setting [8], 56.8%; under setting [9], 62.4%; under setting [10], 22.3%; under setting [11], 40.2%; under setting [12], 56%. In addition, the viability, T/C is, setting by setting: under setting [13], 75.3%; under setting [14], 59.5%; under setting [15], 57.9%; under setting [16], 32.7%; under setting [17], 45.4%; under setting [18], 52.7%. Besides, the viability, T/C by setting is: under setting [19], 78.7%; under setting [20], 61.9%; under setting [21], 45.5%; under setting [22], 38.6%; under setting [23], 54%; under setting [24], 60.4%. Moreover, the viability, T/C under setting [25] is 54.7%; the viability, T/C under setting [26] was 57.6%; the viability, T/C under setting [27] is 44.9%; the viability, T/C under setting [28] is 40.8%; the viability, T/C under setting [29] was 38.7%; the viability, T/C under setting [30] is 61.4%. Also, the viability, T/C by setting is: under setting [31], 55.1%; under setting [32], 34.3%; under setting [33], 44%; under setting [34], 29.2%; under setting [35], 44.5%; under setting [36], 60.4%. The viability, T/C runs as follows: under setting [37], 61.2%; under setting [38], 44.8%; under setting [39], 42.5%; under setting [40], 43.6%; under setting [41], 31.9%; under setting [42], 41.3%.
With `Cc1cccc(N(C)C(=O)C2C(O)CCN2c2nc(C)cc(C(F)(F)F)c2C#N)c1` (centres undefined), the viability, T/C reads like this: (compound 0.0316 µM) 107% and 89.4% and 99.3%; (compound 0.1 µM) 97.1% and 94.8% and 91.9%; (compound 0.316 µM) 97% and 109% and 98%; (compound 1 µM) 88.5% and 83.3% and 100%; (compound 3.16 µM) 60.2% and 82.8% and 85.9%; (compound 10 µM) 89.4% and 74.4% and 90.4%. Moreover, the pIC50 (curve of compound) was less than 5.00.
